The test system of one experiment is SU-DHL-4. Put plainly: MTS cell proliferation assay, SU-DHL-4. Type of experiment: cell-based. The settings on record: Homo sapiens; SU-DHL-4, 72 hr. The method, then: (§1) Cell proliferation was measured using the CellTiter 96 Aqueous Non-Radioactive Cell Proliferation Assay (Promega). The CellTiter 96® AQueous Assay is composed of solutions of a tetrazolium compound [3-(4,5-dimethylthiazol-2-yl)-5-(3-carboxymethoxyphenyl)-2-(4-sulfophenyl)-2H-tetrazolium, inner salt; MTS] and an electron coupling reagent (phenazine methosulfate) PMS. MTS is bioreduced by cells into a formazan product that is soluble in tissue culture medium. The absorbance of the formazan product at 490 nm can be measured directly from assay plates without additional processing. The quantity of formazan product as measured by the amount of 490 nm absorbance is directly proportional to the number of living cells in culture. Cells were seeded into 96-well or 384-well clear plates in a volume of 200 μL (96-well) or 50 μL (384-well) at optimized densities ranging from 1,000 to 40,000 cells per well for 96-well plates or 1,200 to 25,000 cells per well for 384-well plates depending on cell-line. After 4-6 hr recovery, serially diluted compounds in DMSO were added to the cells using (0.1% v/v final DMSO concentration). Cells were then grown at 37° C. in a humidified incubator with 5% CO2 for 72 hr. A 20:1 [3-(4,5-dimethylthiazol-2-yl)-5-(3-carboxymethoxyphenyl)-2-(4-sulfophenyl)-2H-tetrazolium](MTS):phenazine methosulfate (PMS) solution in DPBS was made immediately before use, added to each well, and cells were incubated for 1.5 hr at 37° C. The absorbance at 490 nm was then measured using a platereader. Absorbance values were normalized as percent of control (cells incubated in the presence of 0.1% v/v DMSO). Sigmoidal dose-response curves were plotted using log(inhibitor) vs. response—Variable slope (four parameters) model with a top value constrained to 100% (GraphPad Prism version 6.00 for Windows, GraphPad Software, La Jolla California USA). […] Curves for compounds that reached a plateau were matched exactly to the measurement points. […]

The test system of the next experiment is CMK. Briefly: MTS cell proliferation assay, CMK. Type of experiment: cell-based. Particulars: Homo sapiens, 72 hr. The protocol:
as §1
On the technique in general: Formazan colour is commonly taken as a measure of viable cells.

The next experiment concerns Molm-13. Briefly: MTS cell proliferation assay, Molm-13. The experiment is classed as cell-based. Particulars: Homo sapiens; Molm-13, 72 hr. The method, then:
(§2) Cell proliferation was measured using the CellTiter 96 Aqueous Non-Radioactive Cell Proliferation Assay (Promega). The CellTiter 96® AQueous Assay is composed of solutions of a tetrazolium compound [3-(4,5-dimethylthiazol-2-yl)-5-(3-carboxymethoxyphenyl)-2-(4-sulfophenyl)-2H-tetrazolium, inner salt; MTS] and an electron coupling reagent (phenazine methosulfate) PMS. MTS is bioreduced by cells into a formazan product that is soluble in tissue culture medium. The absorbance of the formazan product at 490 nm can be measured directly from assay plates without additional processing. The quantity of formazan product as measured by the amount of 490 nm absorbance is directly proportional to the number of living cells in culture. Cells were seeded into 96-well or 384-well clear plates in a volume of 200 μL (96-well) or 50 μL (384-well) at optimized densities ranging from 1,000 to 40,000 cells per well for 96-well plates or 1,200 to 25,000 cells per well for 384-well plates depending on cell-line. After 4-6 hr recovery, serially diluted compounds in DMSO were added to the cells using (0.1% v/v final DMSO concentration). Cells were then grown at 37° C. in a humidified incubator with 5% CO2 for 72 hr. A 20:1 [3-(4,5-dimethylthiazol-2-yl)-5-(3-carboxymethoxyphenyl)-2-(4-sulfophenyl)-2H-tetrazolium](MTS):phenazine methosulfate (PMS) solution in DPBS was made immediately before use, added to each well, and cells were incubated for 1.5 hr at 37° C. The absorbance at 490 nm was then measured using a platereader. Absorbance values were normalized as percent of control (cells incubated in the presence of 0.1% v/v DMSO). Sigmoidal dose-response curves were plotted using log(inhibitor) vs. response—Variable slope (four parameters) model with a top value constrained to 100% (GraphPad Prism version 6.00 for Windows, GraphPad Software, La Jolla California USA). […] Curves for compounds that reached a plateau were matched exactly to the measurement points. […] To determine potential of compounds of the invention to affect viability of hematological cancers, cell lines representing various tumor types were selected and tested. Human cell lines tested were: MOLM-13 (acute myeloid leukemia (AML)), MV4-11 (AML), U-2932 (ABC-diffuse large B cell lymphoma), U-937 (histiocytic lymphoma), U-266 (multiple myeloma), RPMI-8226 (multiple myeloma), CMK (megakaryoblastic cell line), SU-DHL-4 (GCB-diffuse large B cell lymphoma), KG1 (AML), Mec-1 (chronic B-cell leukemia), MOLM-16 (AML), Jeko (B-cell lymphoma), WSU-DLCL2 (B-cell lymphoma), JJN3 (plasma cell leukemia), SU-DHL-6 (GCB-diffuse large B cell lymphoma), and Z-138 (mantle cell lymphoma). In addition, two murine cell lines were tested: A20 […].

For experiment [1], the target named is T1, Full-length phosphorylated PDK1 (Homo sapiens, UniProt O15530).
T1 sequence (O15530 1-556): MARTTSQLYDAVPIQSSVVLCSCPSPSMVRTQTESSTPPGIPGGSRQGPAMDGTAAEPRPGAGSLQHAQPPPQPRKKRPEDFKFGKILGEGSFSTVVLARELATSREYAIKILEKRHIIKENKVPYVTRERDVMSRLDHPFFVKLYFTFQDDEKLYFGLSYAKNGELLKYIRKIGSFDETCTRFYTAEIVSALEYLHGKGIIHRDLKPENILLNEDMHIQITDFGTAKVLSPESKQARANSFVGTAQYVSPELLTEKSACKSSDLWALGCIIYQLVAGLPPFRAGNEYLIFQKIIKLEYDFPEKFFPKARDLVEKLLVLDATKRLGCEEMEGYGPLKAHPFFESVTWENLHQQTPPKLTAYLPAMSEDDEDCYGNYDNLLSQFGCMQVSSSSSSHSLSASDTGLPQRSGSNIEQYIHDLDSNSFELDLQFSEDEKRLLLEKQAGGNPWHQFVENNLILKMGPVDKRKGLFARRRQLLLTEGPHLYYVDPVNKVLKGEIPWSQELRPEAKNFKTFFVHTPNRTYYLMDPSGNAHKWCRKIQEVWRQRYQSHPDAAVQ
Put plainly: FRET-based PIF-tide binding assay. The settings on record: 10 nM compound where stated, FIG. 13D.

For a further experiment, the system named is U-2932. Briefly: MTS cell proliferation assay, U-2932. The experiment is classed as cell-based. The settings on record: Homo sapiens, U2932; U-2932, 72 hr. The method, then: as §2
In another experiment the test system is Jeko. Briefly: MTS cell proliferation assay, Jeko. The experiment is classed as cell-based. Particulars: Homo sapiens, 72 hr. The protocol: as §2
The subject of another experiment is MV4-11. Put plainly: MTS cell proliferation assay, MV4-11. Particulars: Homo sapiens; MV4-11, 72 hr; read-out: MTS proliferation assay. Type of experiment: cell-based, human. The method, then:
Cell proliferation was measured using the CellTiter 96 Aqueous Non-Radioactive Cell Proliferation Assay (Promega). […] MTS is bioreduced by cells into a formazan product that is soluble in tissue culture medium. The absorbance of the formazan product at 490 nm can be measured directly from assay plates without additional processing. The quantity of formazan product as measured by the amount of 490 nm absorbance is directly proportional to the number of living cells in culture. Cells were seeded into 96-well or 384-well clear plates in a volume of 200 μL (96-well) or 50 μL (384-well) at optimized densities ranging from 1,000 to 40,000 cells per well for 96-well plates or 1,200 to 25,000 cells per well for 384-well plates depending on cell-line. After 4-6 hr recovery, serially diluted compounds in DMSO were added to the cells using (0.1% v/v final DMSO concentration). Cells were then grown at 37° C. in a humidified incubator with 5% CO2 for 72 hr. A 20:1 [3-(4,5-dimethylthiazol-2-yl)-5-(3-carboxymethoxyphenyl)-2-(4-sulfophenyl)-2H-tetrazolium](MTS):phenazine methosulfate (PMS) solution in DPBS was made immediately before use, added to each well, and cells were incubated for 1.5 hr at 37° C. The absorbance at 490 nm was then measured using a platereader. Absorbance values were normalized as percent of control (cells incubated in the presence of 0.1% v/v DMSO). Sigmoidal dose-response curves were plotted using log(inhibitor) vs. response—Variable slope (four parameters) model with a top value constrained to 100% (GraphPad Prism version 6.00 for Windows, GraphPad Software, La Jolla California USA). […] To determine potential of compounds of the invention to affect viability of hematological cancers, cell lines representing various tumor types were selected and tested. […] In addition, two murine cell lines were tested: A20 […].

Take `C[C@H](NC(=O)c1nc(C#N)cnc1NCc1ccc(-c2cnc3[nH]nc(N)c3n2)cc1)c1ccc(F)c(F)c1` [Compound 1, 3-[4-(3-Amino-1H-pyrazolo[3,4-b]pyrazin-5-yl)-benzylamino]-6-cyano-pyrazine-2-carboxylic acid [1-(3,4-difluoro-phenyl)-ethyl]-amide]: the EC50 was found to be 313 nM in the experiment on SU-DHL-4; 222 nM with CMK; 6 nM in the experiment with Molm-13; 108 nM in the experiment on U-2932; 286 nM in the experiment on Jeko; 5 nM in the experiment on MV4-11. In addition, in experiment [1], the “FRET between PDK1 and PIF-tide” value is “near complete inhibition”.
`CNc1n[nH]c2ncc(-c3ccc(CNc4ncc(C#N)nc4C(=O)N[C@@H](C)c4ccc(F)c(F)c4)cc3)cc12` [Compound 2, 6-Cyano-3-[4-(3-methylamino-1H-pyrazolo[3,4-b]pyridin-5-yl)-benzylamino]-pyrazine-2-carboxylic acid [1-(3,4-difluoro-phenyl)-ethyl]-amide]: the EC50 worked out at 186 nM in the experiment on SU-DHL-4; 182 nM in the experiment with CMK; 3 nM in the experiment with Molm-13; 56 nM in the experiment with U-2932; 279 nM in the experiment with Jeko; 7 nM in the experiment with MV4-11. Besides, in experiment [1], the “FRET between PDK1 and PIF-tide” value is “near complete inhibition”.

For the origin of these results see patent US20240207258A1, “HETEROCYCLIC PDK1 INHIBITORS FOR USE TO TREAT CANCER” (Viracta Therapeutics, Inc., priority 2015, published 2024).
